Entries after “also recorded” stand apart in the source; their conditions may differ.
Tests used:
[1] = system: critically ill rabbits; test: Toxicity of spermidine, sequential up-down allocation; type: in vivo, rabbit
Protocol: The toxicity of spermidine was assessed using a sequential up-down allocation technique. The administered dose of spermidine was determined by the response of the previous animal to a higher or lower dose (with incremental/decremental steps per 300 mg/d; minimum dose 600 mg/d). When the animal survived until day 4, this was considered as absence of acute toxicity. Mortality during the first 3 days was considered as acute toxicity. When there was no acute toxic effect, the next included animal would receive 300 mg spermidine/day more. When there was an acute toxic effect, the next included animal would receive 300 mg/day less (until the starting dose as a minimum). […] The protocol was otherwise similar as in the experiments described previously.

[2] = system: chronologically aging wild type yeast cells; test: Yeast cell death and oxidative stress markers (DHE, Annexin V/PI); type: cell-based
From the text: For chronological aging experiments, cultures were inoculated from fresh overnight cultures to OD600 of 0.1 (˜1·10^6 cells/ml) with culture volume being 10% of flask volume and aliquots were taken out to perform survival plating at indicated time points (Herker, at al. (2004) J. Cell Biol. 164, 501-507. Survival at day 1 of wild type control cultures was set to 100% and other samples calculated accordingly. If not otherwise indicated, representative aging experiments are shown with at least three independent samples (as indicated) aged at the same time, which have been repeated at least twice with similar outcome. In case of experiments with Δspe1 (FIG. 24 A-E), all strains were inoculated to 5·10^4 cells/ml. Upon deletion of both IKI3 and SAS3 we observed slight aggregation of cells possibly due to a defect in late budding events. Therefore, for calculation of survival rates in experiments using Δiki3Δsas3, cell numbers of each sample were determined after two pulse of sonication on ice with Sonifier 250 from Benson (Duty Cycle: 35; Output Control: 2.5). Tests for apoptotic (TUNEL and Annexin V staining) and necrotic (PI staining) markers as well as markers for oxidative stress (DHE staining) were performed as described in Dod et al. (1982) Eur J Biochem 121, 401-405). For quantifications using flow cytometry (BD FACSAria), 30,000 cells were evaluated and analyzed with BD FACSDiva software. Spermidine (S4139, Sigma, Austria) and putrescine (P5780, Sigma, Austria; 1 mM final concentration) were added to stationary cultures at day 1 of the aging experiments (24 h after inoculation). 1 M aqueous stock solution of spermidine was stored in one use aliquots at −20° C. for no longer than 1 month. For adjustment of extracellular pH (pHex) to 6 (±0.5), the required amount of sodium hydroxide was added 30 h after inoculation. […]
As a further marker for necrosis, nuclear release of the yeast HMGB1 homolog (Nhp6Ap) was monitored by epifluorescence microscopy of ectopically expressed chimeric fusion protein Nhp6Ap-EGFP. […]

[3] = system: autophagy; test: Yeast autophagy measurements; type: cell-based
From the text: Autophagy was monitored either by vacuolar localization of Atg8p using fluorescence microscopy of cells expressing an EGFP-Atg8 fusion protein (T. Kirisako et al. (1999) J Cell Biol 147, 435-446.) or by alkaline phosphatase (ALP) activity according to Kissova et al. (Kissova at al. (2004) J Biol Chem 279, 39068-39074) using BY4741 wild type strain transformed with and selected for stable insertion of pTN9 HindIII fragment (confirmed by PCR). In order to correct for intrinsic (background) ALP activity, BY4741 (without pTN9) have been simultaneously processed and ALP activity subtracted. For generation of EGFP-ATG8 constructs see section on Molecular Biology.

[4] = system: pre-aged wild type yeast cells; test: Stress of pre-aged yeast by heat shock or hydrogen peroxide; type: cell-based; conditions: aged to day 24 with 4 mM spermidine; 4 h, 3 mM H2O2 or 42° C.
Protocol: Survival of pre-aged wild type cells stressed for 4 h with hydrogen peroxide (3 mM H2O2) or heat shock (42° C.) compared to unstressed cells. Cells were chronologically aged until day 24 with or without addition of 4 mM spermidine. Data represent means±SEM (n=4). *p<0.05 and ***p<0.001. B) Free thiol group concentration (indicative of oxidative stress level) in blood serum of aging mice with or without (control) supplementation of drinking water with 0.3 and 3 mM spermidine for 200 days. Data represent means±SEM (n=3). **p<0.01. (C) Intracellular spermidine of mouse liver cells, obtained from the same mice used for RSH measurements presented in (B). Data represent means±SEM (n=3).

[5] = system: critically ill rabbits; test: Proof-of-concept outcome study, interim analysis (15 animals per group)
Protocol: Based on the pilot study, two doses of spermidine (30 and 100 mg/day) were selected to continue with.
An a priori planned interim analysis was performed after having included 15 animals per group, for selecting 1 spermidine-group to be completed next to the saline-group until 58 animals per group are included. After the interim analysis, the codes of the vials were changed, so that the proceeding of the study was again carried out blinded.
Based on the pilot study, two doses of spermidine are selected (30 and 100 mg/day) to continue with.
An interim analysis was performed after having included 15 animals per group, for selecting 1 spermidine-group that will be completed next to the saline-group until 58 animals per group are included. After the interim analysis, the codes of the vials are changed, so that the proceeding of the study is again carried out blinded.

[6] = spermidine treatment during chronological aging

NCCCCNCCCN [spermidine]
time of death after starting the spermidine infusion ([1]; continuous infusion of approximately 600 mg/day, both of two animals): 28 h
dose without acute toxic effects ([1]; half of the toxic dose, highest dose of the pilot study): 300 mg/day
dose with acute toxic effects ([1]; mortality during the first 3 days): 600 mg/day
dose with acute toxic effects ([1]; per kg body weight): approx 200 mg/kg/day
dose without acute toxic effects ([1]; per kg body weight): approximately 100 mg/kg/day
loss of membrane integrity (PI positivity and Annexin V+PI+) ([2]; after 18 days of aging, 50% without spermidine): less than 10%
externalization of phosphatidylserine (Annexin V+PI− cells), early apoptotic marker [2, 6]: remained largely unaltered
markers of necrosis and oxidative stress (DHE positivity) [2, 6]: drastically diminished
autophagy [3]: strongly induces autophagy
resistance against stress inflicted by heat shock or H2O2 treatment [4]: strong resistance
mortality ([5]; 7 days after injury, 30 and 100 mg/day, both doses equal, placebo >50%): about one third; also recorded: much lower
rise in renal p62 levels (autophagic flux marker) ([5]; kidney, compared to saline-treated animals): attenuated
plasma spermidine concentration ([5]; spermidine 30 mg/d or 100 mg/d): maintain or increase the plasma spermidine concentration to similar (supra)physiological levels
number of animals that developed a more than 3-fold rise in normal urea levels ([5]; spermidine-treated animals, saline 18.8%, P 0.0461): 2.8%
number of animals that developed a more than 3-fold rise in normal creatinine levels ([5]; spermidine-treated animals, saline 25%, P 0.0161): 2.8%

— patent US20120015901A1, “METHODS AND PREPARATIONS FOR PROTECTING CRITICALLY ILL PATIENTS” (priority 2009, published 2012)
